Earlier results, collected in patent US12029822B2, “Drug delivery systems containing oxidized cholesterols” (Georgia Tech Research Corporation, priority 2019, dated 2024).

Test system: AB1-HA tumor
Conditions: CTX treatment at Day 9

For `O=P1(N(CCCl)CCCl)NCCCO1` (stereo not shown) [CTX, Cyclophosphamide], the cure rate is given as 75%.
